# Laboratory results from patent US10898459B2, “Method of treating chronic kidney disease” (Panion & BF Biotech Inc., priority 2006, dated 2021).
# Legend:
# [1] = tested on: patients with end stage renal disease (ESRD) on hemodialysis; test: Treatment-emergent adverse events in the dose-ranging ESRD study; assay type: in vivo, human
# Text: Safety will be monitored by recording adverse events and the results of physical examinations, vital signs and laboratory tests at each study visit.
# Objectives: (1) To determine the effect of ferric citrate at doses of 2, 4 and 6 g daily, administered TID (three times a day), for 28 days on serum phosphate (PO4) levels in patients with end stage renal disease (ESRD). (2) To evaluate the safety of ferric citrate at doses of 2, 4, 6 g daily, administered TID, for 28 days in patients with ESRD.
# Study Design: Randomized, double-blind, placebo-controlled, dose-ranging study to assess the effect of ferric citrate on serum phosphate concentrations in patients with ESRD on hemodialysis. Patients are assessed at Study Days 14 and 28 for effectiveness as measured by serum phosphate concentrations. Patients who received one or more doses of study medication are also assessed for safety.
# [2] = tested on: patients with end stage renal disease (ESRD); settings: 3 g daily, recent pilot study in ESRD patients; cited from earlier work
substance,measurement,setting,value
ferric citrate,"Abdominal Pain (Preferred Term), # Event",[1]; 2 g/day (N = 33),0
same,"Abdominal Pain (Preferred Term), (%)",[1]; 2 g/day (N = 33),(0.0) %
same,"Diarrhea (Preferred Term), # Event",[1]; 2 g/day (N = 33),3
same,"Diarrhea (Preferred Term), (%)",[1]; 2 g/day (N = 33),(9.1) %
same,"GI Disorder, Definitely (relationship), # Event",[1]; 2 g/day (N = 33),0
same,"GI Disorder, Definitely (relationship), (%)",[1]; 2 g/day (N = 33),(0.0) %
same,"GI Disorder, Possibly (relationship), # Event",[1]; 2 g/day (N = 33),3
same,"GI Disorder, Possibly (relationship), (%)",[1]; 2 g/day (N = 33),(9.1) %
same,"GI Disorder, Probably (relationship), # Event",[1]; 2 g/day (N = 33),2
same,"GI Disorder, Probably (relationship), (%)",[1]; 2 g/day (N = 33),(6.1) %
same,"GI Disorders (System Organ Class), # Event",[1]; 2 g/day (N = 33),8
same,"GI Disorders (System Organ Class), (%)",[1]; 2 g/day (N = 33),(24.2) %
same,"GI Disorders, Mild (severity), # Event",[1]; 2 g/day (N = 33),6
same,"GI Disorders, Mild (severity), (%)",[1]; 2 g/day (N = 33),(18.2) %
same,"General Disorders (System Organ Class), # Event",[1]; 2 g/day (N = 33),4
same,"General Disorders (System Organ Class), (%)",[1]; 2 g/day (N = 33),(12.1) %
same,"Infections and Infestations (System Organ Class), # Event",[1]; 2 g/day (N = 33),0
same,"Infections and Infestations (System Organ Class), (%)",[1]; 2 g/day (N = 33),(0.0) %
same,"Skin and SC Tissue Disorders (System Organ Class), # Event",[1]; 2 g/day (N = 33),3
same,"Skin and SC Tissue Disorders (System Organ Class), (%)",[1]; 2 g/day (N = 33),(9.1) %
same,"T#at1 AE, Definitely (relationship), # Event",[1]; 2 g/day (N = 33),0
same,"T#at1 AE, Definitely (relationship), (%)",[1]; 2 g/day (N = 33),(0.0) %
same,"T#at1 AE, Mild (severity), # Event",[1]; 2 g/day (N = 33),13
same,"T#at1 AE, Mild (severity), (%)",[1]; 2 g/day (N = 33),(39.4) %
same,"T#at1 AE, Moderate (severity), # Event",[1]; 2 g/day (N = 33),6
same,"T#at1 AE, Moderate (severity), (%)",[1]; 2 g/day (N = 33),(18.2) %
same,"T#at1 AE, Possibly (relationship), # Event",[1]; 2 g/day (N = 33),5
same,"T#at1 AE, Possibly (relationship), (%)",[1]; 2 g/day (N = 33),(15.2) %
same,"T#at1 AE, Probably (relationship), # Event",[1]; 2 g/day (N = 33),2
same,"T#at1 AE, Probably (relationship), (%)",[1]; 2 g/day (N = 33),(6.1) %
same,"T#at1 AE, Severe (severity), # Event",[1]; 2 g/day (N = 33),0
same,"T#at1 AE, Severe (severity), (%)",[1]; 2 g/day (N = 33),(0.0) %
same,"Total number of subjects with at least one adverse event (T#at1 AE), # Event",[1]; 2 g/day (N = 33),16
same,"Total number of subjects with at least one adverse event (T#at1 AE), (%)",[1]; 2 g/day (N = 33),(48.5) %
same,"Abdominal Pain (Preferred Term), # Event",[1]; 4 g/day (N = 34),4
same,"Abdominal Pain (Preferred Term), (%)",[1]; 4 g/day (N = 34),(11.8) %
same,"Diarrhea (Preferred Term), # Event",[1]; 4 g/day (N = 34),1
same,"Diarrhea (Preferred Term), (%)",[1]; 4 g/day (N = 34),(2.9) %
same,"GI Disorder, Definitely (relationship), # Event",[1]; 4 g/day (N = 34),0
same,"GI Disorder, Definitely (relationship), (%)",[1]; 4 g/day (N = 34),(0.0) %
same,"GI Disorder, Possibly (relationship), # Event",[1]; 4 g/day (N = 34),6
same,"GI Disorder, Possibly (relationship), (%)",[1]; 4 g/day (N = 34),(17.6) %
same,"GI Disorder, Probably (relationship), # Event",[1]; 4 g/day (N = 34),2
same,"GI Disorder, Probably (relationship), (%)",[1]; 4 g/day (N = 34),(5.9) %
same,"GI Disorders (System Organ Class), # Event",[1]; 4 g/day (N = 34),10
same,"GI Disorders (System Organ Class), (%)",[1]; 4 g/day (N = 34),(29.4) %
same,"GI Disorders, Mild (severity), # Event",[1]; 4 g/day (N = 34),8
same,"GI Disorders, Mild (severity), (%)",[1]; 4 g/day (N = 34),(23.5) %
same,"General Disorders (System Organ Class), # Event",[1]; 4 g/day (N = 34),2
same,"General Disorders (System Organ Class), (%)",[1]; 4 g/day (N = 34),(5.9) %
same,"Infections and Infestations (System Organ Class), # Event",[1]; 4 g/day (N = 34),3
same,"Infections and Infestations (System Organ Class), (%)",[1]; 4 g/day (N = 34),(8.8) %
same,"Skin and SC Tissue Disorders (System Organ Class), # Event",[1]; 4 g/day (N = 34),0
same,"Skin and SC Tissue Disorders (System Organ Class), (%)",[1]; 4 g/day (N = 34),(0.0) %
same,"T#at1 AE, Definitely (relationship), # Event",[1]; 4 g/day (N = 34),0
same,"T#at1 AE, Definitely (relationship), (%)",[1]; 4 g/day (N = 34),(0.0) %
same,"T#at1 AE, Mild (severity), # Event",[1]; 4 g/day (N = 34),9
same,"T#at1 AE, Mild (severity), (%)",[1]; 4 g/day (N = 34),(26.5) %
same,"T#at1 AE, Moderate (severity), # Event",[1]; 4 g/day (N = 34),3
same,"T#at1 AE, Moderate (severity), (%)",[1]; 4 g/day (N = 34),(8.8) %
same,"T#at1 AE, Possibly (relationship), # Event",[1]; 4 g/day (N = 34),6
same,"T#at1 AE, Possibly (relationship), (%)",[1]; 4 g/day (N = 34),(17.6) %
same,"T#at1 AE, Probably (relationship), # Event",[1]; 4 g/day (N = 34),2
same,"T#at1 AE, Probably (relationship), (%)",[1]; 4 g/day (N = 34),(5.9) %
same,"T#at1 AE, Severe (severity), # Event",[1]; 4 g/day (N = 34),2
same,"T#at1 AE, Severe (severity), (%)",[1]; 4 g/day (N = 34),(5.9) %
same,"Total number of subjects with at least one adverse event (T#at1 AE), # Event",[1]; 4 g/day (N = 34),12
same,"Total number of subjects with at least one adverse event (T#at1 AE), (%)",[1]; 4 g/day (N = 34),(35.3) %
same,"Abdominal Pain (Preferred Term), # Event",[1]; 6 g/day (N = 33),2
same,"Abdominal Pain (Preferred Term), (%)",[1]; 6 g/day (N = 33),(6.1) %
same,"Diarrhea (Preferred Term), # Event",[1]; 6 g/day (N = 33),1
same,"Diarrhea (Preferred Term), (%)",[1]; 6 g/day (N = 33),(3.0) %
same,"GI Disorder, Definitely (relationship), # Event",[1]; 6 g/day (N = 33),0
same,"GI Disorder, Definitely (relationship), (%)",[1]; 6 g/day (N = 33),(0.0) %
same,"GI Disorder, Possibly (relationship), # Event",[1]; 6 g/day (N = 33),1
same,"GI Disorder, Possibly (relationship), (%)",[1]; 6 g/day (N = 33),(3.0) %
same,"GI Disorder, Probably (relationship), # Event",[1]; 6 g/day (N = 33),5
same,"GI Disorder, Probably (relationship), (%)",[1]; 6 g/day (N = 33),(15.2) %
same,"GI Disorders (System Organ Class), # Event",[1]; 6 g/day (N = 33),10
same,"GI Disorders (System Organ Class), (%)",[1]; 6 g/day (N = 33),(30.3) %
same,"GI Disorders, Mild (severity), # Event",[1]; 6 g/day (N = 33),9
same,"GI Disorders, Mild (severity), (%)",[1]; 6 g/day (N = 33),(27.3) %
same,"General Disorders (System Organ Class), # Event",[1]; 6 g/day (N = 33),4
same,"General Disorders (System Organ Class), (%)",[1]; 6 g/day (N = 33),(12.1) %
same,"Infections and Infestations (System Organ Class), # Event",[1]; 6 g/day (N = 33),1
same,"Infections and Infestations (System Organ Class), (%)",[1]; 6 g/day (N = 33),(3.0) %
same,"Skin and SC Tissue Disorders (System Organ Class), # Event",[1]; 6 g/day (N = 33),4
same,"Skin and SC Tissue Disorders (System Organ Class), (%)",[1]; 6 g/day (N = 33),(12.1) %
same,"T#at1 AE, Definitely (relationship), # Event",[1]; 6 g/day (N = 33),0
same,"T#at1 AE, Definitely (relationship), (%)",[1]; 6 g/day (N = 33),(0.0) %
same,"T#at1 AE, Mild (severity), # Event",[1]; 6 g/day (N = 33),14
same,"T#at1 AE, Mild (severity), (%)",[1]; 6 g/day (N = 33),(42.4) %
same,"T#at1 AE, Moderate (severity), # Event",[1]; 6 g/day (N = 33),2
same,"T#at1 AE, Moderate (severity), (%)",[1]; 6 g/day (N = 33),(6.1) %
same,"T#at1 AE, Possibly (relationship), # Event",[1]; 6 g/day (N = 33),2
same,"T#at1 AE, Possibly (relationship), (%)",[1]; 6 g/day (N = 33),(6.1) %
same,"T#at1 AE, Probably (relationship), # Event",[1]; 6 g/day (N = 33),5
same,"T#at1 AE, Probably (relationship), (%)",[1]; 6 g/day (N = 33),(15.2) %
same,"T#at1 AE, Severe (severity), # Event",[1]; 6 g/day (N = 33),1
same,"T#at1 AE, Severe (severity), (%)",[1]; 6 g/day (N = 33),(3.0) %
same,"Total number of subjects with at least one adverse event (T#at1 AE), # Event",[1]; 6 g/day (N = 33),17
same,"Total number of subjects with at least one adverse event (T#at1 AE), (%)",[1]; 6 g/day (N = 33),(51.5) %
same,tolerability (GI symptoms),[2],"mild, but tolerable GI symptoms"
